We go through 29 compounds from patent US9365584B2, “Thieno [2,3-B] pyridinedione activators of AMPK and therapeutic uses thereof” (Poxel, priority 2009, dated 2016).

The test system of the assay is AMPK. Briefly: AMPK enzyme activity assay (Delfia technology, AMARA peptide substrate). The following applies: compound at 30 μM vs AMP at 200 μM. The assay is classed as biochemical. In short, it runs like this:
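Value is the ratio of compound (30 μM) to AMP (200 μM) response, each as % of basal control. Phosphorylation of the AMARA peptide after AMPK addition was read by Delfia with an anti-phosphoserine antibody.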

As to `O=C1Nc2sc(Cl)c(-c3ccccc3)c2C(=O)C1(F)c1cccc(C(F)(F)F)c1` (stereo not shown) [No 95, 2-chloro-5-fluoro-3-phenyl-5-[3-(trifluoro-methyl)phenyl]-7H-thieno[2,3-b]pyridine-4,6-dione], the “Activity: Ratio between the % of control (basal activity) of compound of formula (1) at 30 μM and the % of control (basal activity) of AMP (natural substrate) at 200 μM” value (from here on “Activity: Ratio between the % of control”) is “B (50%≦B<75%)”.

Turning to `COc1ccc(-c2c(Cl)sc3c2C(=O)C(C)(c2ccc(C)cc2)C(=O)N3)cc1` (stereo not shown) [No 96, 2-chloro-3-(4-methoxyphenyl)-5-methyl-5-(p-tolyl)-7H-thieno[2,3-b]pyridine-4,6-dione], the “Activity: Ratio between the % of control” value was “A (0%<A<50%)”. Consider `CS(=O)(=O)c1ccc(C2(F)C(=O)Nc3sc(Cl)c(-c4ccccc4)c3C2=O)cc1` (stereo not shown) [No 97, 2-chloro-5-fluoro-5-(4-methylsulfonylphenyl)-3-phenyl-7H-thieno[2,3-b]pyridine-4,6-dione], for which the “Activity: Ratio between the % of control” value is “C (C≧75%)”.

Regarding `COc1ccccc1-c1c(Cl)sc2c1C(=O)C(F)(c1ccccc1)C(=O)N2` (stereo not shown) [No 98, 2-chloro-5-fluoro-3-(2-methoxyphenyl)-5-phenyl-7H-thieno[2,3-b]pyridine-4,6-dione], the “Activity: Ratio between the % of control” value is “A (0%<A<50%)”. `COc1ccccc1C1(F)C(=O)Nc2sc(Cl)c(-c3ccc(F)cc3O)c2C1=O` (stereo not shown) [No 99, 2-chloro-5-fluoro-3-(4-fluoro-2-hydroxy-phenyl)-5-(2-methoxyphenyl)-7H-thieno[2,3-b]pyridine-4,6-dione]: the “Activity: Ratio between the % of control” value is recorded as “C (C≧75%)”. In the case of `O=C1Nc2scc(-c3ccccc3)c2C(=O)C1(F)c1ccccc1` (stereo not shown) [No 100, 5-fluoro-3,5-diphenyl-7H-thieno[2,3-b]pyridine-4,6-dione], the “Activity: Ratio between the % of control” value was “B (50%≦B<75%)”. `O=C1Nc2sc(Cl)c(-c3ccccc3Cl)c2C(=O)C1(F)c1ccccc1` (stereo not shown) [No 101, 2-chloro-3-(2-chlorophenyl)-5-fluoro-5-phenyl-7H-thieno[2,3-b]pyridine-4,6-dione]: the “Activity: Ratio between the % of control” value was “B (50%≦B<75%)”. Turning to `Cc1c(F)ccc(-c2csc3c2C(=O)C(F)(c2ccccc2)C(=O)N3)c1O` (stereo not shown) [No 102, 5-fluoro-3-(4-fluoro-2-hydroxy-3-methyl-phenyl)-5-phenyl-7H-thieno[2,3-b]pyridine-4,6-dione], the “Activity: Ratio between the % of control” value is “C (C≧75%)”.

For the compound `CC1(c2cccc(F)c2)C(=O)Nc2sc(Cl)c(-c3cccc(F)c3)c2C1=O` (stereo not shown) [No 103, 2-chloro-3,5-bis(3-fluorophenyl)-5-methyl-7H-thieno[2,3-b]pyridine-4,6-dione], the “Activity: Ratio between the % of control” value is given as “A (0%<A<50%)”. Regarding `CC1(c2ccccc2F)C(=O)Nc2sc(Cl)c(-c3cccc(F)c3)c2C1=O` (stereo not shown) [No 104, 2-chloro-5-(2-fluorophenyl)-3-(3-fluorophenyl)-5-methyl-7H-thieno[2,3-b]pyridine-4,6-dione], the “Activity: Ratio between the % of control” value is “B (50%≦B<75%)”. `COc1cccc(C2(C)C(=O)Nc3sc(Cl)c(-c4cccc(F)c4)c3C2=O)c1` (stereo not shown) [No 105, 2-chloro-3-(3-fluorophenyl)-5-(3-methoxyphenyl)-5-methyl-7H-thieno[2,3-b]pyridine-4,6-dione]: the “Activity: Ratio between the % of control” value was “A (0%<A<50%)”.

In the case of `Cc1cccc(C2(C)C(=O)Nc3sc(Cl)c(-c4cccc(F)c4)c3C2=O)c1` (stereo not shown) [No 106, 2-chloro-3-(3-fluorophenyl)-5-methyl-5-(m-tolyl)-7H-thieno[2,3-b]pyridine-4,6-dione], the “Activity: Ratio between the % of control” value is given as “A (0%<A<50%)”. Regarding `COc1ccccc1-c1c(Cl)sc2c1C(=O)C(C)(c1ccccc1)C(=O)N2` (stereo not shown) [No 107, 2-chloro-3-(2-methoxyphenyl)-5-methyl-5-phenyl-7H-thieno[2,3-b]pyridine-4,6-dione], the “Activity: Ratio between the % of control” value is on record as “A (0%<A<50%)”.

For the compound `Cc1c(F)ccc(-c2csc3c2C(=O)C(F)(c2ccc(F)cc2)C(=O)N3)c1O` (stereo not shown) [No 108, 5-fluoro-3-(4-fluoro-2-hydroxy-3-methyl-phenyl)-5-(4-fluorophenyl)-7H-thieno[2,3-b]pyridine-4,6-dione], the “Activity: Ratio between the % of control” value is “C (C≧75%)”. For the compound `Cc1ccc(C2(F)C(=O)Nc3scc(-c4ccc(F)cc4O)c3C2=O)cc1` (stereo not shown) [No 109, 5-fluoro-3-(4-fluoro-2-hydroxy-phenyl)-5-(p-tolyl)-7H-thieno[2,3-b]pyridine-4,6-dione], the “Activity: Ratio between the % of control” value is given as “C (C≧75%)”. Regarding `COc1cc(C)ccc1-c1csc2c1C(=O)C(F)(c1cccc(C#N)c1)C(=O)N2` (stereo not shown) [No 110, 3-[5-fluoro-3-(2-methoxy-4-methyl-phenyl)-4,6-dioxo-7H-thieno[2,3-b]pyridin-5-yl]benzonitrile], the “Activity: Ratio between the % of control” value is listed as “C (C≧75%)”. For the same compound, the “Activity: Ratio between the % of control” value (listed as 4) is on record as “A (0%<A<50%)”. On to `COc1cc(C)ccc1-c1c(F)sc2c1C(=O)C(F)(c1cccc(C#N)c1)C(=O)N2` (stereo not shown) [No 111, 3-[2,5-difluoro-3-(2-methoxy-4-methyl-phenyl)-4,6-dioxo-7H-thieno[2,3-b]pyridin-5-yl]benzonitrile], for which the “Activity: Ratio between the % of control” value is reported as “C (C≧75%)”. Further, the “Activity: Ratio between the % of control” value (listed as 5) is recorded as “A (0%<A<50%)”. As to `COc1cccc(O)c1-c1csc2c1C(=O)C(F)(c1ccccc1)C(=O)N2` (stereo not shown) [No 112, 5-fluoro-3-(2-hydroxy-6-methoxy-phenyl)-5-phenyl-7H-thieno[2,3-b]pyridine-4,6-dione], the “Activity: Ratio between the % of control” value is reported as “A (0%<A<50%)”. Still for that read-out and setting: the entry for `COc1cc(-c2csc3c2C(=O)C(F)(c2ccccc2)C(=O)N3)ccc1C` (stereo not shown) [No 113, 5-fluoro-3-(3-methoxy-4-methyl-phenyl)-5-phenyl-7H-thieno[2,3-b]pyridine-4,6-dione] is “B (50%≦B<75%)”; for `COc1cc(-c2c(F)sc3c2C(=O)C(F)(c2ccccc2)C(=O)N3)ccc1C` (stereo not shown) [No 114, 2,5-difluoro-3-(3-methoxy-4-methyl-phenyl)-5-phenyl-7H-thieno[2,3-b]pyridine-4,6-dione] it is “B (50%≦B<75%)”.

For the compound `Cc1ccc(-c2csc3c2C(=O)C(F)(c2ccccc2)C(=O)N3)cc1O` (stereo not shown) [No 115, 5-fluoro-3-(3-hydroxy-4-methyl-phenyl)-5-phenyl-7H-thieno[2,3-b]pyridine-4,6-dione], the “Activity: Ratio between the % of control” value was “C (C≧75%)”. Same read-out and setting: the entry for `Cc1ccc(-c2c(F)sc3c2C(=O)C(F)(c2ccccc2)C(=O)N3)cc1O` (stereo not shown) [No 116, 2,5-difluoro-3-(3-hydroxy-4-methyl-phenyl)-5-phenyl-7H-thieno[2,3-b]pyridine-4,6-dione] is “C (C≧75%)”. As for `Cc1ccc(C2(C)C(=O)Nc3sc(Cl)c(-c4cccc(C)c4)c3C2=O)cc1` (stereo not shown) [No 117, 2-chloro-5-methyl-3-(m-tolyl)-5-(p-tolyl)-7H-thieno[2,3-b]pyridine-4,6-dione], the “Activity: Ratio between the % of control” value was “A (0%<A<50%)”.

For the compound `COc1cc(C)ccc1-c1csc2c1C(=O)C(F)(c1ccccc1)C(=O)N2` (stereo not shown) [No 118, 5-fluoro-3-(2-methoxy-4-methyl-phenyl)-5-phenyl-7H-thieno[2,3-b]pyridine-4,6-dione], the “Activity: Ratio between the % of control” value is listed as “B (50%≦B<75%)”.

For `COc1cc(C)ccc1-c1c(F)sc2c1C(=O)C(F)(c1ccccc1)C(=O)N2` (stereo not shown) [No 119, 2,5-difluoro-3-(2-methoxy-4-methyl-phenyl)-5-phenyl-7H-thieno[2,3-b]pyridine-4,6-dione], the “Activity: Ratio between the % of control” value is given as “B (50%≦B<75%)”. For `CS(=O)(=O)c1cccc(-c2csc3c2C(=O)C(F)(c2ccccc2)C(=O)N3)c1` (stereo not shown) [No 120, 5-fluoro-3-(3-methylsulfonylphenyl)-5-phenyl-7H-thieno[2,3-b]pyridine-4,6-dione], the “Activity: Ratio between the % of control” value is recorded as “A (0%<A<50%)”. On the same count and under the same terms, the entry for `Cc1ccc(-c2csc3c2C(=O)C(F)(c2ccccc2)C(=O)N3)c(O)c1` (stereo not shown) [No 121, 5-fluoro-3-(2-hydroxy-4-methyl-phenyl)-5-phenyl-7H-thieno[2,3-b]pyridine-4,6-dione] is “C (C≧75%)”. As for `O=C1Nc2scc(-c3c(F)cccc3F)c2C(=O)C1(F)c1ccccc1` (stereo not shown) [No 122, 3-(2,6-difluorophenyl)-5-fluoro-5-phenyl-7H-thieno[2,3-b]pyridine-4,6-dione], the “Activity: Ratio between the % of control” value is “C (C≧75%)”. Same read-out and setting: with `O=C1Nc2scc(-c3ccc(Br)cc3O)c2C(=O)C1(F)c1ccccc1` (stereo not shown) [No 123, 3-(4-bromo-2-hydroxy-phenyl)-5-fluoro-5-phenyl-7H-thieno[2,3-b]pyridine-4,6-dione] the entry was “C (C≧75%)”.
